{"source": "the supplement of paper PMC10307832", "assay_in_all_cases": "relative viability (nuclei count vs DMSO), 5 days (fraction); higher = more cells survive", "key": {"BX 795": {"compound": "O=C(NCCCNc1nc(Nc2cccc(NC(=O)N3CCCC3)c2)ncc1I)c1cccs1 [BX 795]", "method_in_brief": "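Only plates meeting two conditions passed: control CV below 25% and at least one doubling. Lung cancer cell lines, kept overnight at 37 °C in 1536-well plates, were pinned with five library-drug doses (not always all listed) √10 apart on vehicle-anchored plates and grown 5 days without medium change. A one-step fix, permeabilisation and Hoechst stain preceded 4× imaging and MetaXpress nuclear counting. Viability equals treated-well nuclei divided by vehicle-well nuclei, as the median over plates.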"}, "BX 795 + Trametinib": {"compound": "O=C(NCCCNc1nc(Nc2cccc(NC(=O)N3CCCC3)c2)ncc1I)c1cccs1 [BX 795] + CC(=O)Nc1cccc(-n2c(=O)n(C3CC3)c(=O)c3c(Nc4ccc(I)cc4F)n(C)c(=O)c(C)c32)c1 [Trametinib] (partner 0.02 µM)", "method_in_brief": "(§1)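 Lung cancer cell lines, seeded in 1536-well plates, were treated the following day by pin tool with a single drug or with five library-drug doses (not always all listed) in √10 steps on top of a fixed anchor-drug dose. Cells were fixed and nuclei stained in one step after 5 days, and nuclei were counted. Relative viability is the nuclei count for treated wells divided by that for vehicle wells, reported as medians of duplicate plates.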"}, "BX 795 + Palbociclib": {"compound": "O=C(NCCCNc1nc(Nc2cccc(NC(=O)N3CCCC3)c2)ncc1I)c1cccs1 [BX 795] + CC(=O)c1c(C)c2cnc(Nc3ccc(N4CCNCC4)cn3)nc2n(C2CCCC2)c1=O [Palbociclib] (partner 0.5 µM)", "method_in_brief": "as §1"}, "BX 795 + Luminespib": {"compound": "O=C(NCCCNc1nc(Nc2cccc(NC(=O)N3CCCC3)c2)ncc1I)c1cccs1 [BX 795] + CCNC(=O)c1noc(-c2cc(C(C)C)c(O)cc2O)c1-c1ccc(CN2CCOCC2)cc1 [Luminespib] (partner 0.01 µM)", "method_in_brief": "as §1"}, "BX 795 + Foretinib": {"compound": "O=C(NCCCNc1nc(Nc2cccc(NC(=O)N3CCCC3)c2)ncc1I)c1cccs1 [BX 795] + COc1cc2c(Oc3ccc(NC(=O)C4(C(=O)Nc5ccc(F)cc5)CC4)cc3F)ccnc2cc1OCCCN1CCOCC1 [Foretinib] (partner 0.25 µM)", "method_in_brief": "as §1"}, "BX 795 + OSI-027": {"compound": "O=C(NCCCNc1nc(Nc2cccc(NC(=O)N3CCCC3)c2)ncc1I)c1cccs1 [BX 795] + COc1cccc2cc(-c3nc([C@H]4CC[C@H](C(=O)O)CC4)n4ncnc(N)c34)[nH]c12 [OSI-027] (partner 0.5 µM)", "method_in_brief": "as §1"}, "BX 795 + Tozasertib": {"compound": "O=C(NCCCNc1nc(Nc2cccc(NC(=O)N3CCCC3)c2)ncc1I)c1cccs1 [BX 795] + Cc1cc(Nc2cc(N3CCN(C)CC3)nc(Sc3ccc(NC(=O)C4CC4)cc3)n2)n[nH]1 [Tozasertib] (partner 0.1 µM)", "method_in_brief": "as §1"}, "BX 795 + Dasatinib": {"compound": "O=C(NCCCNc1nc(Nc2cccc(NC(=O)N3CCCC3)c2)ncc1I)c1cccs1 [BX 795] + Cc1nc(Nc2ncc(C(=O)Nc3c(C)cccc3Cl)s2)cc(N2CCN(CCO)CC2)n1 [Dasatinib] (partner 0.075 µM)", "method_in_brief": "as §1"}, "BX 795 + Phenformin": {"compound": "O=C(NCCCNc1nc(Nc2cccc(NC(=O)N3CCCC3)c2)ncc1I)c1cccs1 [BX 795] + N=C(N)NC(=N)NCCc1ccccc1 [Phenformin] (partner 250 µM)", "method_in_brief": "as §1"}, "BX 795 + AZD7762": {"compound": "O=C(NCCCNc1nc(Nc2cccc(NC(=O)N3CCCC3)c2)ncc1I)c1cccs1 [BX 795] + NC(=O)Nc1cc(-c2cccc(F)c2)sc1C(=O)N[C@H]1CCCNC1 [AZD7762] (partner 0.2 µM)", "method_in_brief": "as §1"}, "BX 795 + Pemetrexed": {"compound": "O=C(NCCCNc1nc(Nc2cccc(NC(=O)N3CCCC3)c2)ncc1I)c1cccs1 [BX 795] + Nc1nc2[nH]cc(CCc3ccc(C(=O)N[C@@H](CCC(=O)O)C(=O)O)cc3)c2c(=O)[nH]1 [Pemetrexed] (partner 0.2 µM)", "method_in_brief": "as §1"}, "BX 795 + Decitabine": {"compound": "O=C(NCCCNc1nc(Nc2cccc(NC(=O)N3CCCC3)c2)ncc1I)c1cccs1 [BX 795] + Nc1ncn([C@H]2C[C@H](O)[C@@H](CO)O2)c(=O)n1 [Decitabine] (partner 2 µM)", "method_in_brief": "as §1"}, "BX 795 + Vorinostat": {"compound": "O=C(NCCCNc1nc(Nc2cccc(NC(=O)N3CCCC3)c2)ncc1I)c1cccs1 [BX 795] + O=C(CCCCCCC(=O)Nc1ccccc1)NO [Vorinostat] (partner 1 µM)", "method_in_brief": "as §1"}, "BX 795 + Olaparib": {"compound": "O=C(NCCCNc1nc(Nc2cccc(NC(=O)N3CCCC3)c2)ncc1I)c1cccs1 [BX 795] + O=C(c1cc(Cc2n[nH]c(=O)c3ccccc23)ccc1F)N1CCN(C(=O)C2CC2)CC1 [Olaparib] (partner 8 µM)", "method_in_brief": "as §1"}}, "data": [{"cell line": "NCI-H2342", "values": [{"measurement": "relative viability", "setting": "BX 795; 0.04 µM", "result": 1.03}, {"measurement": "relative viability", "setting": "BX 795; 0.1265 µM", "result": 0.939}, {"measurement": "relative viability", "setting": "BX 795; 0.4 µM", "result": 0.924}, {"measurement": "relative viability", "setting": "BX 795; 1.265 µM", "result": 0.978}, {"measurement": "relative viability", "setting": "BX 795 + Trametinib; first compound 0.04 µM", "result": 0.796}, {"measurement": "relative viability", "setting": "BX 795 + Trametinib; first compound 0.1265 µM", "result": 0.774}, {"measurement": "relative viability", "setting": "BX 795 + Trametinib; first compound 0.4 µM", "result": 0.892}, {"measurement": "relative viability", "setting": "BX 795 + Trametinib; first compound 1.265 µM", "result": 0.766}, {"measurement": "relative viability", "setting": "BX 795 + Palbociclib; first compound 0.04 µM", "result": 0.599}, {"measurement": "relative viability", "setting": "BX 795 + Palbociclib; first compound 0.1265 µM", "result": 0.518}, {"measurement": "relative viability", "setting": "BX 795 + Palbociclib; first compound 0.4 µM", "result": 0.47}, {"measurement": "relative viability", "setting": "BX 795 + Palbociclib; first compound 1.265 µM", "result": 0.498}, {"measurement": "relative viability", "setting": "BX 795 + Luminespib; first compound 0.04 µM", "result": 0.793}, {"measurement": "relative viability", "setting": "BX 795 + Luminespib; first compound 0.1265 µM", "result": 0.588}, {"measurement": "relative viability", "setting": "BX 795 + Luminespib; first compound 0.4 µM", "result": 0.79}, {"measurement": "relative viability", "setting": "BX 795 + Luminespib; first compound 1.265 µM", "result": 0.743}, {"measurement": "relative viability", "setting": "BX 795 + Foretinib; first compound 0.04 µM", "result": 1.17}, {"measurement": "relative viability", "setting": "BX 795 + Foretinib; first compound 0.1265 µM", "result": 0.896}, {"measurement": "relative viability", "setting": "BX 795 + Foretinib; first compound 0.4 µM", "result": 1.07}, {"measurement": "relative viability", "setting": "BX 795 + Foretinib; first compound 1.265 µM", "result": 0.914}, {"measurement": "relative viability", "setting": "BX 795 + OSI-027; first compound 0.04 µM", "result": 0.66}, {"measurement": "relative viability", "setting": "BX 795 + OSI-027; first compound 0.1265 µM", "result": 0.569}, {"measurement": "relative viability", "setting": "BX 795 + OSI-027; first compound 0.4 µM", "result": 0.591}, {"measurement": "relative viability", "setting": "BX 795 + OSI-027; first compound 1.265 µM", "result": 0.637}, {"measurement": "relative viability", "setting": "BX 795 + Tozasertib; first compound 0.04 µM", "result": 0.579}, {"measurement": "relative viability", "setting": "BX 795 + Tozasertib; first compound 0.1265 µM", "result": 0.471}, {"measurement": "relative viability", "setting": "BX 795 + Tozasertib; first compound 0.4 µM", "result": 0.507}, {"measurement": "relative viability", "setting": "BX 795 + Tozasertib; first compound 1.265 µM", "result": 0.46}, {"measurement": "relative viability", "setting": "BX 795 + Dasatinib; first compound 0.04 µM", "result": 0.307}, {"measurement": "relative viability", "setting": "BX 795 + Dasatinib; first compound 0.1265 µM", "result": 0.319}, {"measurement": "relative viability", "setting": "BX 795 + Dasatinib; first compound 0.4 µM", "result": 0.287}, {"measurement": "relative viability", "setting": "BX 795 + Dasatinib; first compound 1.265 µM", "result": 0.312}, {"measurement": "relative viability", "setting": "BX 795 + Phenformin; first compound 0.04 µM", "result": 0.643}, {"measurement": "relative viability", "setting": "BX 795 + Phenformin; first compound 0.1265 µM", "result": 0.515}, {"measurement": "relative viability", "setting": "BX 795 + Phenformin; first compound 0.4 µM", "result": 0.538}, {"measurement": "relative viability", "setting": "BX 795 + Phenformin; first compound 1.265 µM", "result": 0.544}, {"measurement": "relative viability", "setting": "BX 795 + AZD7762; first compound 0.04 µM", "result": 0.591}, {"measurement": "relative viability", "setting": "BX 795 + AZD7762; first compound 0.1265 µM", "result": 0.538}, {"measurement": "relative viability", "setting": "BX 795 + AZD7762; first compound 0.4 µM", "result": 0.481}, {"measurement": "relative viability", "setting": "BX 795 + AZD7762; first compound 1.265 µM", "result": 0.399}, {"measurement": "relative viability", "setting": "BX 795 + Pemetrexed; first compound 0.04 µM", "result": 0.782}, {"measurement": "relative viability", "setting": "BX 795 + Pemetrexed; first compound 0.1265 µM", "result": 0.718}, {"measurement": "relative viability", "setting": "BX 795 + Pemetrexed; first compound 0.4 µM", "result": 0.758}, {"measurement": "relative viability", "setting": "BX 795 + Pemetrexed; first compound 1.265 µM", "result": 0.715}, {"measurement": "relative viability", "setting": "BX 795 + Decitabine; first compound 0.04 µM", "result": 0.87}, {"measurement": "relative viability", "setting": "BX 795 + Decitabine; first compound 0.1265 µM", "result": 0.686}, {"measurement": "relative viability", "setting": "BX 795 + Decitabine; first compound 0.4 µM", "result": 0.823}, {"measurement": "relative viability", "setting": "BX 795 + Decitabine; first compound 1.265 µM", "result": 0.641}, {"measurement": "relative viability", "setting": "BX 795 + Vorinostat; first compound 0.04 µM", "result": 0.754}, {"measurement": "relative viability", "setting": "BX 795 + Vorinostat; first compound 0.1265 µM", "result": 0.734}, {"measurement": "relative viability", "setting": "BX 795 + Vorinostat; first compound 0.4 µM", "result": 0.651}, {"measurement": "relative viability", "setting": "BX 795 + Vorinostat; first compound 1.265 µM", "result": 0.726}, {"measurement": "relative viability", "setting": "BX 795 + Olaparib; first compound 0.04 µM", "result": 0.497}, {"measurement": "relative viability", "setting": "BX 795 + Olaparib; first compound 0.1265 µM", "result": 0.448}, {"measurement": "relative viability", "setting": "BX 795 + Olaparib; first compound 0.4 µM", "result": 0.479}, {"measurement": "relative viability", "setting": "BX 795 + Olaparib; first compound 1.265 µM", "result": 0.357}]}]}
